{"source": "patent US11173192B2", "about": "(priority 2016, dated 2021)", "molecules": {"B1": {"name": "EPRS (aa 1-196): N-terminal EPRS fragment containing GST-like domain and linker region L1 (protein)", "chain": "MATLSLTVNSGDPPLGALLAVEHVKDDVSISVEEGKENILHVSENVIFTDVNSILRYLARVATTAGLYGSNLMEHTEIDHWLEFSATKLSSCDSFTSTINELNHCLSLRTYLVGNSLSLADLCVWATLKGNAAWQEQLKQKKAPVHVKRWFGFLEAQQAFQSVGTKWDVSTTKARVAPEKKQDVGKFVELPGAEMG"}}, "key": {"MAVS [1]": {"test_system": "MAVS", "settings": "PCBP2-transfected 293T cells, various concentrations of EPRS", "protocol": "For immunoblotting analysis, cells were lysed with RIPA buffer (20 mM Tris-HCl, pH 7.4, 150 mM NaCl, 1% NP-40, and 1 mM EDTA) containing a protease inhibitor cocktail and a phosphatase inhibitor cocktail (Roche). Whole cell lysates (50 μg to 100 μg) were subjected to SDS-PAGE, followed by immunoblotting with respective antibodies."}, "MAVS [2]": {"test_system": "MAVS", "settings": "293T cells expressing EPRS, PCBP2, ITCH, Ub; MG-132"}, "[3]": {"target": "T1, binding of PCBP2 to ITCH E3 ligase (Homo sapiens, UniProt Q15366)", "T1 construct": "FLAG-, Strep-, His-, or GST-tagged full-length and truncated PCBP2 were also prepared; expressed in transfected cells", "T1 sequence (Q15366 whole entry, the tested form may be a part)": "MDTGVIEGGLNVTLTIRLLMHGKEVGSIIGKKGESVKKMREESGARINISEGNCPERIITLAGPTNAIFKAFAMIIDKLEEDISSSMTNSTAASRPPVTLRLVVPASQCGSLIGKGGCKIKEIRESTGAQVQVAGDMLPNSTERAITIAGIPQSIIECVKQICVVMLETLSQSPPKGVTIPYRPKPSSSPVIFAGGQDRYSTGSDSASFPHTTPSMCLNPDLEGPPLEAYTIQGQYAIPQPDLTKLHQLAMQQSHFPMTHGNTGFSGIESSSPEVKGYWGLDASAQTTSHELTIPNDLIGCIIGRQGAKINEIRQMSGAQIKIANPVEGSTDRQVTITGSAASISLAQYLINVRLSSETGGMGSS", "T1 sequence (Q96J02 whole entry partner, the tested form may be a part)": "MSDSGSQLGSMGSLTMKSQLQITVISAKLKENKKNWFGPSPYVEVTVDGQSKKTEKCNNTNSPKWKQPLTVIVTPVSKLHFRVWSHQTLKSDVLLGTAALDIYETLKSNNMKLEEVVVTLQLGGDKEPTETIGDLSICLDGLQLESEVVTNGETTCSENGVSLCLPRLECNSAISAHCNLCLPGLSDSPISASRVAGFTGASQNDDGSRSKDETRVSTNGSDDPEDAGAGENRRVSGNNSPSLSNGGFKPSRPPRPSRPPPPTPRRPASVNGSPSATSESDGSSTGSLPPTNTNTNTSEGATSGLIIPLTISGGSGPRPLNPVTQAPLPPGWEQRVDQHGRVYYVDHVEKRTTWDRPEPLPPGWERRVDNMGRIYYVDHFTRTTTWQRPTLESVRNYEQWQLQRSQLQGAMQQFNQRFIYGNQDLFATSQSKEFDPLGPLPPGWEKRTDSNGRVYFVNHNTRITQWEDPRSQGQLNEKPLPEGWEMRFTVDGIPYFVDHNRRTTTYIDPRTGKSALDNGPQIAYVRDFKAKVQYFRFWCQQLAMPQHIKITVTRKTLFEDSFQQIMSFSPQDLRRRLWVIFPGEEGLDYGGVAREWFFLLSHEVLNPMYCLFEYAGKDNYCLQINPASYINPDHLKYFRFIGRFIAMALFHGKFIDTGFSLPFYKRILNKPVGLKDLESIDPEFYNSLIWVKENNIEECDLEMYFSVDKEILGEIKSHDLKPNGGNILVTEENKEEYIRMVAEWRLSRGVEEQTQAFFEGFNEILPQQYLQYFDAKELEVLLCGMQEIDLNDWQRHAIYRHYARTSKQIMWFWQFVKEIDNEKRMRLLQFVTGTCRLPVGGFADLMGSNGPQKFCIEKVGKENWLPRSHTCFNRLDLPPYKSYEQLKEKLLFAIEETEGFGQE", "experiment": "GST precipitation of the PCBP2-ITCH interaction in the presence of EPRS", "assay_type": "cell-based"}, "[4]": {"target": "T2, interaction between PCBP2 and MAVS (Homo sapiens, UniProt Q15366)", "T2 construct": "FLAG-, Strep-, His-, or GST-tagged full-length and truncated PCBP2 were also prepared; expressed in transfected cells; host or cells: 293T", "T2 sequence (Q15366 whole entry, the tested form may be a part)": "as the sequence (Q15366 whole entry, the tested form may be a part) above", "experiment": "GST precipitation of the PCBP2-MAVS interaction in 293T cells with various amounts of EPRS", "assay_type": "cell-based", "settings": "293T cells transfected with MAVS and PCBP2, various amounts of EPRS"}, "VSV": {"test_system": "VSV", "assay_type": "cell-based, vesicular stomatitis virus (VSV)"}, "[5]": {"test_system": "VSV-infected RAW264.7 cells", "assay_type": "cell-based"}, "VSV-Indiana": {"test_system": "VSV-Indiana", "set-up": "species or system mice", "settings": "in vivo, iv"}, "RAW264.7 cells": {"test_system": "RAW264.7 cells", "experiment": "MTS cytotoxicity assay, RAW264.7 cells", "assay_type": "cell-based", "settings": "various concentrations, 12 hours", "description": "(§1) HEK293T or RAW264.7 cells were seeded in 96-well plates (10,000 per well) before treatment with Tat-Epep (20-200 μM) for 0-24 hours. Cytotoxicity was determined in a colorimetric assay using MTS [3-(4,5-dimethylthiazole-2-yl)-5-(carboxymethoxyphenyl)-2-(4-sulfophenyl)-2H-tetrazolium salt] (Promega) 20 μL of MTS was added to each well at 37° C. for 1 hour. Optical density at 490 nm was recorded using an automated microplate reader (BioTek). Background absorbance at 630 nm was subtracted from each sample reading."}, "293T cells": {"test_system": "293T cells", "experiment": "MTS cytotoxicity assay, 293T cells", "assay_type": "cell-based", "settings": "12 or 24 hours", "description": "as §1"}, "PCBP2": {"target": "T3, PCBP2 (Homo sapiens, UniProt Q15366)", "T3 construct": "FLAG-, Strep-, His-, or GST-tagged full-length and truncated PCBP2 were also prepared; expressed in transfected cells; host or cells: 293T", "T3 sequence (Q15366 whole entry, species assumed, the tested form may be a part)": "as the sequence (Q15366 whole entry, the tested form may be a part) above", "experiment": "Co-IP of EPRS or its fragments with PCBP2 in 293T cells", "assay_type": "binding", "settings": "293T cells transfected with PCBP2 and EPRS plasmids", "description": "For immunoprecipitation, cell lysates were pre-cleared by incubation with protein A beads for 1 hour at 4° C. The pre-cleared cell lysates were incubated overnight at 4° C. with the respective antibodies, followed by incubation with 30 μL of protein A/G PLUS-agarose beads for 3 to 4 hours at 4° C. The immunoprecipitates were then collected and washed five times with a lysis buffer before immunoblotting analysis."}, "PCBP2 KH1 (aa 11-82)": {"target": "PCBP2 KH1 (aa 11-82) (Homo sapiens, UniProt Q15366)", "sequence (Q15366 11-82)": "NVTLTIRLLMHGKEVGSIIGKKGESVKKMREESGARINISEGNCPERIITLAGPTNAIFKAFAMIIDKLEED", "experiment": "In vitro pull-down of purified EPRS domains with PCBP2 KH1", "settings": "purified His-tagged EPRS domains, GST-fused PCBP2 KH1"}}, "note": "Where no end group is shown, it is not given here."}
{"molecule": "EPRS: glutamyl-prolyl-tRNA synthetase protein, 1512 aa, SEQ ID NO: 63; expressed from plasmid or purified", "values": [{"measurement": "PCBP2-induced degradation of endogenous MAVS", "setting": "MAVS [1]", "value": "rescued from this degradation"}, {"measurement": "PCBP2-induced degradation of exogenous MAVS", "setting": "MAVS [1]", "value": "rescued from this degradation"}, {"measurement": "PCBP2-mediated ubiquitination of exogenous MAVS-FLAG", "setting": "MAVS [2]", "value": "inhibited PCBP2-mediated ubiquitination of MAVS in a dose-dependent manner"}, {"measurement": "endogenous ubiquitination of MAVS", "setting": "MAVS [2]", "value": "significantly attenuated in the presence of EPRS"}, {"measurement": "binding of PCBP2 to ITCH E3 ligase", "setting": "[3]", "value": "did not disrupt the binding of PCBP2 to ITCH E3 ligase"}, {"measurement": "interaction between PCBP2 and MAVS", "setting": "[4]", "value": "significantly reduced"}]}
{"molecule": "YGRKKRRQRRR-GG-KWDVSTTKARVAPEKKQDVGK (YGRKKRRQRRRGGKWDVSTTKARVAPEKKQDVGK; New Tat-Epep)", "values": [{"measurement": "viral replication (fluorescence images)", "setting": "VSV", "value": "stronger inhibitory effect"}, {"measurement": "increase in IFN-β secretion as compared with Tat-Epep", "setting": "[5]", "value": "2- to 3 fold"}, {"measurement": "increase in IL-6 secretion as compared with Tat-Epep", "setting": "[5]", "value": "2- to 3 fold"}, {"measurement": "VSV viral titers in mouse brains", "setting": "VSV-Indiana", "value": "decrease VSV viral titers in the mouse brains"}]}
{"molecule": "YGRKKRRQRRRGGDVSTTKARVAPEKKQDVGKFVELPGAEMG [Tat-Epep]", "values": [{"measurement": "viability of RAW264.7 cells", "setting": "RAW264.7 cells", "value": "no effect on the viability"}, {"measurement": "viability of 293T cells", "setting": "293T cells", "value": "no effect on the viability"}]}
{"molecule": "B1", "values": [{"measurement": "interaction with PCBP2 (co-IP)", "setting": "PCBP2", "value": "crucial for the interaction with PCBP2"}, {"measurement": "direct interaction with PCBP2 KH1 (in vitro precipitation)", "setting": "PCBP2 KH1 (aa 11-82)", "value": "specifically interacted"}]}
